Consider 25 molecules from patent US10543212B2, “Substituted amines for treating cardiac diseases” (Cardurion Pharmaceuticals, LLC, priority 2017, dated 2020).

For one experiment, the target named is T1, Full-length, GST-tagged, human CaMKIIδ (Homo sapiens, UniProt Q13557).
T1 construct: Full-Length, Glutathione-S-Transferase(GST)-Tagged, Human CaMKIIδ was purchased from Carna Biosciences; purchased Carna Biosciences 02-111
T1 sequence (Q13557 1-478 isoform Q13557-12): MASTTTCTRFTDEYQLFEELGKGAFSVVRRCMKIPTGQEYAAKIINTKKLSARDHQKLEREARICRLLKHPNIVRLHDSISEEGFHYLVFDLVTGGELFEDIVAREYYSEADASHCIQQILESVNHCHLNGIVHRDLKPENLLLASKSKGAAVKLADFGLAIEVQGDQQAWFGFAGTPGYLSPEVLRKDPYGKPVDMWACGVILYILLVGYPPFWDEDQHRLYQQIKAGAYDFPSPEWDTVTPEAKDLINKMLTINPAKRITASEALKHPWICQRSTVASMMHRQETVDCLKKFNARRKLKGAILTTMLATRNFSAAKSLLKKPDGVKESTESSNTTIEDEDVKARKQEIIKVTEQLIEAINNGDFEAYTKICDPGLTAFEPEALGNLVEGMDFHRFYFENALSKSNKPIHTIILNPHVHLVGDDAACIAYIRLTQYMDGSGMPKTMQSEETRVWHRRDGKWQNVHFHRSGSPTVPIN
Briefly: CaMKIIδ binding assay (TR-FRET with BODIPY-labeled probe ligand). Particulars: CaMKIIδ binding assay, results of Table 2. The method, boiled down:
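TR-FRET probe-displacement binding: 0.5 nM GST-CaMKIIδ with 10 μg/mL calmodulin, 1 mM CaCl2, 0.21 nM Tb-anti-GST Ab and 300 nM BODIPY probe in HEPES pH 7.6 buffer. Eight-point 4-fold dilutions, 1 hr at room temperature. IC50 from logistic fit; 100% inhibition defined by 3 μM parent compound.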
Turning to `Cc1ncc(N2CCC(N3CCOCC3)CC2)cc1Nc1ncc(-c2ccc(Cl)c(O[C@@H](C)Cn3cnnn3)c2)cn1` [Example 462, (S)-5-(3-((1-(1H-tetrazol-1-yl)propan-2-yl)oxy)-4-chlorophenyl)-N-(2-methyl-5-(4-morpholinopiperidin-1-yl)pyridin-3-yl)pyrimidin-2-amine], the IC50 (in general, the concentration needed to halve the response being measured) is less than 10 nM.
Consider `COc1cc(N2CCC(N3CCOCC3)CC2)ccc1Nc1ncc(-c2cc(O[C@@H](C)Cn3cnnn3)c(Cl)cn2)cn1` [Example 534, (S)-5-(4-((1-(1H-tetrazol-1-yl)propan-2-yl)oxy)-5-chloropyridin-2-yl)-N-(2-methoxy-4-(4-morpholinopiperidin-1-yl)phenyl)pyrimidin-2-amine], for which the IC50 is no less than 100 nM.
The same measure, in the same setting: under `COc1ccc(C(=O)N2C[C@@H](C)N[C@@H](C)C2)cc1Nc1ncc(-c2ccc(Cl)c(O[C@@H](C)Cn3cnnn3)c2)cn1` [Example 570, (3-((5-(3-(((S)-1-(1H-tetrazol-1-yl)propan-2-yl)oxy)-4-chlorophenyl)pyrimidin-2-yl)amino)-4-methoxyphenyl) (cis-3,5-dimethylpiperazin-1-yl)methanone] stands less than 10 nM.
`C[C@@H](Cn1cnnn1)Oc1cc(-c2cnc(Nc3ccc4c(c3)CCN4C(=O)C3CCN(C)CC3)nc2)ccc1Cl` [Example 452, (S)-(5-((5-(3-((1-(1H-tetrazol-1-yl)propan-2-yl)oxy)-4-chlorophenyl)pyrimidin-2-yl)amino)indolin-1-yl) (1-methylpiperidin-4-yl)methanone] yielded an IC50 of less than 10 nM.
Turning to `C[C@@H](Cn1cnnn1)Oc1cc(-c2cnc(Nc3cc4c(cc3Cl)CCNCC4)nc2)ccc1Cl` [Example 507, (S)-N-(5-(3-((1-(1H-tetrazol-1-yl)propan-2-yl)oxy)-4-chlorophenyl)pyrimidin-2-yl)-8-chloro-2,3,4,5-tetrahydro-1H-benzo[d]azepin-7-amine], the IC50 is less than 10 nM.
In the case of `COc1cc2c(cc1Nc1ncc(-c3ccc(Cl)c(O[C@@H](C)Cn4cnnn4)c3)cn1)CN(C(=O)CO)CC2` [Example 522, (S)-1-(7-((5-(3-((1-(1H-tetrazol-1-yl)propan-2-yl)oxy)-4-chlorophenyl)pyrimidin-2-yl)amino)-6-methoxy-3,4-dihydroisoquinolin-2(1H)-yl)-2-hydroxyethan-1-one], the IC50 lay in the range of 10 to 100 nM.
`COc1cc2c(cc1Nc1ncc(-c3ccc(Cl)c(O[C@@H](C)Cn4cnnn4)c3)cn1)N(C(C)=O)CC2` [Example 466, (S)-1-(6-((5-(3-((1-(1H-tetrazol-1-yl)propan-2-yl)oxy)-4-chlorophenyl)pyrimidin-2-yl)amino)-5-methoxyindolin-1-yl)ethan-1-one] registered an IC50 of 10 to 100 nM.
The molecule `C[C@@H](Cn1cnnn1)Oc1cc(-c2cnc(Nc3ccc(N4CCC(N5CCOCC5)CC4)cc3C(N)=O)nc2)ccc1Cl` [Example 444, (S)-2-((5-(3-((1-(1H-tetrazol-1-yl)propan-2-yl)oxy)-4-chlorophenyl)pyrimidin-2-yl)amino)-5-(4-morpholinopiperidin-1-yl)benzamide] had an IC50 of no less than 100 nM.
`COc1cc2c(cc1Nc1ncc(-c3ccc(Cl)c(O[C@@H](C)Cn4cnnn4)c3)cn1)CCN(CC(C)=O)C2` [Example 479, (S)-1-(6-((5-(3-((1-(1H-tetrazol-1-yl)propan-2-yl)oxy)-4-chlorophenyl)pyrimidin-2-yl)amino)-7-methoxy-3,4-dihydroisoquinolin-2(1H)-yl)propan-2-one] yielded an IC50 of less than 10 nM.

Still in this experiment, the particulars now being: CaMKIIδ binding assay; activity class per Table 2.
`C[C@@H](Cn1cnnn1)Oc1cc(-c2cnc(Nc3cn(C4CC5(C4)CN(C4CCCOCC4)C5)nc3OCC(F)(F)F)nc2)ccc1Cl` (stereo partly drawn) [Example 981, 5-(3-(((S)-1-(1H-tetrazol-1-yl)propan-2-yl)oxy)-4-chlorophenyl)-N-(1-(2-(oxepan-4-yl)-2-azaspiro[3.3]heptan-6-yl)-3-(2,2,2-trifluoroethoxy)-1H-pyrazol-4-yl)pyrimidin-2-amine] registered an IC50 of less than 10 nM.
As to `C[C@@H](Cn1cnnn1)Oc1cc(-c2cnc(Nc3cn([C@@H]4CN(C5CCC5)CC[C@H]4O)nc3C(F)(F)F)nc2)ccc1Cl` (mixture of isomers) [Example 904, trans-3-(4-((5-(3-(((S)-1-(1H-tetrazol-1-yl)propan-2-yl)oxy)-4-chlorophenyl)pyrimidin-2-yl)amino)-3-(trifluoromethyl)-1H-pyrazol-1-yl)-1-cyclobutylpiperidin-4-ol], the IC50 is less than 10 nM.

Still in this experiment, the particulars now being: Table 2; CaMKIIδ binding assay, activity given as class A/B/C.
Consider `C[C@@H](Cn1cccn1)Oc1cc(-c2cnc(Nc3cn([C@H]4CC[C@@H](N5CCOCC5)CC4)nc3OCC(F)(F)F)nc2)ccc1C#N` [Example 797, 2-(((S)-1-(1H-pyrazol-1-yl)propan-2-yl)oxy)-4-(2-((1-(cis-4-morpholinocyclohexyl)-3-(2,2,2-trifluoroethoxy)-1H-pyrazol-4-yl)amino)pyrimidin-5-yl)benzonitrile], for which the IC50 lay in the range of 10 to 100 nM.
In turn, `C[C@@H](Cn1cnnn1)Oc1cc(-c2cnc(Nc3cn([C@H]4CC[C@@H](N5CC6(COC6)C5)CC4)nc3C(F)(F)F)nc2)ccc1Cl` [Example 823, 5-(3-(((S)-1-(1H-tetrazol-1-yl)propan-2-yl)oxy)-4-chlorophenyl)-N-(1-(cis-4-(2-oxa-6-azaspiro[3.3]heptan-6-yl)cyclohexyl)-3-(trifluoromethyl)-1H-pyrazol-4-yl)pyrimidin-2-amine] gave an IC50 of less than 10 nM.
The same measure, in the same setting: with `C[C@@H](Cn1cnnn1)Oc1cc(-c2cnc(Nc3cn([C@H]4CC[C@H](N5CCOCC5)CC4)nc3OC[C@@H]3CC3(F)F)nc2)ccc1Cl` [Example 869] the figure was less than 10 nM.
Molecule `C[C@@H](Cn1cnnn1)Oc1cc(-c2cnc(Nc3cn(C4CCC(CC(N)=O)CC4)nc3C(F)(F)F)nc2)ccc1Cl` (stereo partly drawn) [Example 852, (S)-2-(4-(4-((5-(3-((1-(1H-tetrazol-1-yl)propan-2-yl)oxy)-4-chlorophenyl)pyrimidin-2-yl)amino)-3-(trifluoromethyl)-1H-pyrazol-1-yl)cyclohexyl)acetamide] yielded an IC50 of no less than 100 nM.
In turn, `COc1ccc(-n2cc(Nc3ncc(-c4ccc(Cl)c(O[C@@H](C)Cn5cnnn5)c4)cn3)c(C(F)(F)F)n2)cn1` [Example 867, (S)-5-(3-((1-(1H-tetrazol-1-yl)propan-2-yl)oxy)-4-chlorophenyl)-N-(1-(6-methoxypyridin-3-yl)-3-(trifluoromethyl)-1H-pyrazol-4-yl)pyrimidin-2-amine] had an IC50 of no less than 100 nM.
In turn, `C[C@@H](Cn1cnnn1)Oc1cc(-c2cnc(Nc3cn([C@H]4CC[C@H](N5[C@@H]6CC[C@H]5COC6)CC4)nc3OCC(F)F)nc2)ccc1Cl` [Example 844, 5-(3-(((S)-1-(1H-tetrazol-1-yl)propan-2-yl)oxy)-4-chlorophenyl)-N-(1-(trans-4-((1R,5S)-3-oxa-8-azabicyclo[3.2.1]octan-8-yl)cyclohexyl)-3-(2,2-difluoroethoxy)-1H-pyrazol-4-yl)pyrimidin-2-amine] gave an IC50 of less than 10 nM.
`C[C@@H](Cn1cnnn1)Oc1cc(-c2cnc(Nc3cn(C4CCN(C(=O)OC(C)(C)C)CC4)nc3C(F)F)nc2)ccc1Cl` [Example 766, tert-butyl (S)-4-(4-((5-(3-((1-(1H-tetrazol-1-yl)propan-2-yl)oxy)-4-chlorophenyl)pyrimidin-2-yl)amino)-3-(difluoromethyl)-1H-pyrazol-1-yl)piperidine-1-carboxylate]: the IC50 was 10 to 100 nM.

Staying with this experiment, now noted: Table 2; activity class for CaMKIIδ.
In turn, `C[C@@H](Cn1cnnn1)Oc1cc(-c2cnc(Nc3cc(-c4ccccc4)nn3C)nc2)ccc1Cl` [Example 719, (S)-5-(3-((1-(1H-tetrazol-1-yl)propan-2-yl)oxy)-4-chlorophenyl)-N-(1-methyl-3-phenyl-1H-pyrazol-5-yl)pyrimidin-2-amine] came in with an IC50 of 10 to 100 nM.
As to `C[C@@H](Cn1cnnn1)Oc1cc(-c2cnc(Nc3cn(Cc4ccccn4)nc3C(F)(F)F)nc2)ccc1Cl` [Example 707, (S)-5-(3-((1-(1H-tetrazol-1-yl)propan-2-yl)oxy)-4-chlorophenyl)-N-(1-(pyridin-2-ylmethyl)-3-(trifluoromethyl)-1H-pyrazol-4-yl)pyrimidin-2-amine], the IC50 fell in the range of 10 to 100 nM.
`COc1cc(N2CCOC(CN(C)C)C2)ccc1Nc1ncc(-c2ccc(Cl)c(O[C@@H](C)Cn3cnnn3)c2)cn1` (stereo partly drawn) [Example 688, 5-(3-(((S)-1-(1H-tetrazol-1-yl)propan-2-yl)oxy)-4-chlorophenyl)-N-(4-(2-((dimethylamino)methyl)morpholino)-2-methoxyphenyl)pyrimidin-2-amine] displayed an IC50 of less than 10 nM.
Consider `COc1nc(N2CCN(C(=O)OC(C)(C)C)CC2)ccc1Nc1ncc(-c2ccc(Cl)c(O[C@@H](C)Cn3cnnn3)c2)cn1` [Example 613, tert-butyl (S)-4-(5-((5-(3-((1-(1H-tetrazol-1-yl)propan-2-yl)oxy)-4-chlorophenyl)pyrimidin-2-yl)amino)-6-methoxypyridin-2-yl)piperazine-1-carboxylate], for which the IC50 is no less than 100 nM.
`COc1nc(N2CCN(CC3COC3)CC2)ccc1Nc1ncc(-c2ccc(Cl)c(O[C@@H](C)Cn3cnnn3)c2)cn1` [Example 639, (S)-5-(3-((1-(1H-tetrazol-1-yl)propan-2-yl)oxy)-4-chlorophenyl)-N-(2-methoxy-6-(4-(oxetan-3-ylmethyl)piperazin-1-yl)pyridin-3-yl)pyrimidin-2-amine] gave an IC50 of 10 to 100 nM.
In turn, `C[C@@H](Cn1cnnn1)Oc1cc(-c2cnc(Nc3cc(-c4cccs4)nn3C)nc2)ccc1Cl` [Example 729, (S)-5-(3-((1-(1H-tetrazol-1-yl)propan-2-yl)oxy)-4-chlorophenyl)-N-(1-methyl-3-(thiophen-2-yl)-1H-pyrazol-5-yl)pyrimidin-2-amine] registered an IC50 of 10 to 100 nM.
Still for that read-out and setting: with `COc1ccc(C(=O)N2CCCN(CCO)CC2)cc1Nc1ncc(-c2ccc(Cl)c(O[C@@H](C)Cn3cnnn3)c2)cn1` [Example 588, (S)-(3-((5-(3-((1-(1H-tetrazol-1-yl)propan-2-yl)oxy)-4-chlorophenyl)pyrimidin-2-yl)amino)-4-methoxyphenyl) (4-(2-hydroxyethyl)-1,4-diazepan-1-yl)methanone] the figure was less than 10 nM.
